Here are results for 17 compounds from patent US20180327396A1, “NOVEL PYRIDINE DERIVATIVES” (Hoffmann-La Roche Inc., priority 2014, published 2018).

The structures appear in SMILES notation.

T1 sequence (P34972 whole entry): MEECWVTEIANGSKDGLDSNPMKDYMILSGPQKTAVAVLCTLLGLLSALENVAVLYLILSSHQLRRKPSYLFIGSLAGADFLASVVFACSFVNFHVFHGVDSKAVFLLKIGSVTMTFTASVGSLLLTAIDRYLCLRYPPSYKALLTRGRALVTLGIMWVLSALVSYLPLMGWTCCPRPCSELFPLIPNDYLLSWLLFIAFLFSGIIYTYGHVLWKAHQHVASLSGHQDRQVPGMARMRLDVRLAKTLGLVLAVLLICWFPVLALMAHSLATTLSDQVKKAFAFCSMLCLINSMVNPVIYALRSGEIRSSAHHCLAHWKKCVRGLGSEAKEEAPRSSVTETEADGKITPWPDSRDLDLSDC

The first experiment concerns the target T1, human CB2 receptors (Homo sapiens, UniProt P34972).
T1 construct: expressed in transfected cells; host or cells: CHO cells
Put plainly: cAMP assay. It is filed as cell-based.
Details: not given
The method, then:
CHO cells expressing human CB1 or CB2 receptors are seeded 17-24 hours prior to the experiment 50.000 cells per well in a black 96 well plate with flat clear bottom (Corning Costar #3904) in DMEM (Invitrogen No. 31331), 1× HT supplement, with 10% fetal calf serum and incubated at 5% CO2 and 37° C. in a humidified incubator. The growth medium was exchanged with Krebs Ringer Bicarbonate buffer with 1 mM IBMX and incubated at 30° C. for 30 min. Compounds were added to a final assay volume of 100 μl and incubated for 30 min at 30° C. Using the cAMP-Nano-TRF detection kit the assay (Roche Diagnostics) was stopped by the addition of 50 μl lysis reagent (Tris, NaCl, 1.5% Triton X100, 2.5% NP40, 10% NaN3) and 50 μl detection solutions (20 μM mAb Alexa700-cAMP 1:1, and 48 μM Ruthenium-2-AHA-cAMP) and shaken for 2 h at room temperature. The time-resolved energy transfer is measured by a TRF reader (Evotec Technologies GmbH), equipped with a ND:YAG laser as excitation source. The plate is measured twice with the excitation at 355 nm and at the emission with a delay of 100 ns and a gate of 100 ns, total exposure time 10 s at 730 (bandwidth 30 nm) or 645 nm (bandwidth 75 nm), respectively. The FRET signal is calculated as follows: FRET=T730−Alexa730−P(T645−B645) with P=Ru730−B730/Ru645−B645, where T730 is the test well measured at […], T645 is the test well measured at 645 nm, B730 and B645 are the buffer controls at 730 nm and 645 nm, respectively. cAMP content is determined from the function of a standard curve spanning from 10 μM to 0.13 nM cAMP.
EC50 values were determined using Activity Base analysis (ID Business Solution, Limited). The EC50 values for a wide range of cannabinoid agonists generated from this assay for reference compounds were in agreement with the values published in the scientific literature.
(In general: cAMP levels reflect the balance of adenylyl cyclase and phosphodiesterase activity.)
Compound `CC(C)(Cc1nnc(-c2ccccc2)o1)NC(=O)c1ccc(C2CC2)c(-c2ccc(Cl)cc2)n1` [Example 10, 6-(4-Chlorophenyl)-5-cyclopropyl-N-[2-methyl-1-(5-phenyl-1,3,4-oxadiazol-2-yl)propan-2-yl]pyridine-2-carboxamide] displayed a concentration giving a half-maximal response (EC50) of 265 nM. Consider `COCCOc1cccc(C(=O)NC(C)(C)Cc2nc(-c3ccccc3)no2)n1` [Example 11, 6-(2-Methoxyethoxy)-N-[2-methyl-1-(3-phenyl-1,2,4-oxadiazol-5-yl)propan-2-yl]pyridine-2-carboxamide], for which a half-maximal effect (EC50) was put at 573 nM. In turn, `CC(C)(Cc1nc(-c2ccccc2)no1)NC(=O)c1cccc(-c2ccc(Cl)cc2)n1` [Example 4, 6-(4-Chlorophenyl)-N-[2-methyl-1-(3-phenyl-1,2,4-oxadiazol-5-yl)propan-2-yl]pyridine-2-carboxamide] had a 50% effective concentration (EC50) of 339 nM. Still for that read-out and setting: the value for `Cc1nnc(C(C)(C)NC(=O)c2cccc(-c3ccc(Cl)cc3Cl)n2)o1` [Example 15, 6-(2,4-Dichlorophenyl)-N-[2-(5-methyl-1,3,4-oxadiazol-2-yl)propan-2-yl]pyridine-2-carboxamide] was 107 nM; that for `CC(C)(CN=[N+]=[N-])c1cc(NC(=O)c2cnc(C3CC3)c(OCC3CC3)n2)on1` [Example 26, N-[3-(1-Azido-2-methylpropan-2-yl)-1,2-oxazol-5-yl]-5-cyclopropyl-6-(cyclopropylmethoxy)pyrazine-2-carboxamide] was 12.4 nM. On to `CC(C)(COC1CCCCO1)c1cc(NC(=O)c2cnc(C3CC3)c(OCC3CC3)n2)on1` (centres unmarked) [Example 24, 5-Cyclopropyl-6-(cyclopropylmethoxy)-N-[3-[2-methyl-1-(oxan-2-yloxy)propan-2-yl]-1,2-oxazol-5-yl]pyrazine-2-carboxamide], for which the concentration giving a half-maximal response (EC50) amounted to 75.2 nM. The same measure, in the same setting: the value for `CC(C)(Cc1nnc(-c2ccccc2)o1)NC(=O)c1cccc(OCC(F)(F)F)n1` [Example 3, N-[2-Methyl-1-(5-phenyl-1,3,4-oxadiazol-2-yl)propan-2-yl]-6-(2,2,2-trifluoroethoxy)pyridine-2-carboxamide] was 132 nM; that for `CC(C)(Cc1nc(C2CC2)no1)NC(=O)c1cccc(-c2cccc(Cl)c2)n1` [Example 7, 6-(3-Chlorophenyl)-N-[1-(3-cyclopropyl-1,2,4-oxadiazol-5-yl)-2-methylpropan-2-yl]pyridine-2-carboxamide] was 244 nM; that for `O=C(NC12CC3CC(CC(O)(C3)C1)C2)c1ccc(N2CC(F)(F)C2)c(OCC2CC2)n1` [Example 21, 6-(Cyclopropylmethoxy)-5-(3,3-difluoroazetidin-1-yl)-N-(3-hydroxy-1-adamantyl)pyridine-2-carboxamide] was 81.6 nM. Same read-out and setting: the value for `CC(C)(Cc1nnc(C2CCC2)o1)NC(=O)c1cccc(-c2cccc(Cl)c2)n1` [Example 13, 6-(3-Chlorophenyl)-N-[1-(5-cyclobutyl-1,3,4-oxadiazol-2-yl)-2-methylpropan-2-yl]pyridine-2-carboxamide] was 294 nM.

In turn, `CC(C)(CO)c1cc(NC(=O)c2cnc(C3CC3)c(OCC3CC3)n2)on1` [Example 25, 5-Cyclopropyl-6-(cyclopropylmethoxy)-N-[3-(1-hydroxy-2-methylpropan-2-yl)-1,2-oxazol-5-yl]pyrazine-2-carboxamide] registered an EC50 of 51.6 nM.

The same experiment, now with this note: CHO cells expressing human CB2 receptors; read-out: cAMP assay human CB2 EC50.
For `CC(C)(Cc1nc(-c2ccccc2)no1)NC(=O)c1cccc(OCC(F)(F)F)n1` [Example 5, N-[2-Methyl-1-(3-phenyl-1,2,4-oxadiazol-5-yl)propan-2-yl]-6-(2,2,2-trifluoroethoxy)pyridine-2-carboxamide], the half-maximal effective concentration (EC50) worked out at 554 nM.

Turning to `COCCOCC(C)(C)c1cc(NC(=O)c2ccc(C3CCCC3)c(OCC3CC3)n2)on1` [Example 29, 5-Cyclopentyl-6-(cyclopropylmethoxy)-N-[3-[1-(2-methoxyethoxy)-2-methylpropan-2-yl]-1,2-oxazol-5-yl]pyridine-2-carboxamide], the EC50 is 175 nM.

`CCOCCOCC(C)(C)c1cc(NC(=O)c2ccc(C3CCCC3)c(OCC3CC3)n2)on1` [Example 30, 5-Cyclopentyl-6-(cyclopropylmethoxy)-N-[3-[1-(2-ethoxyethoxy)-2-methylpropan-2-yl]-1,2-oxazol-5-yl]pyridine-2-carboxamide]: the EC50 was 176 nM. On the same count and under the same terms, the value for `CC(C)(Cc1nnc(-c2ccc(F)cc2)o1)NC(=O)c1ccc(C2CCCC2)c(OCC2CC2)n1` [Example 28, 5-Cyclopentyl-6-(cyclopropylmethoxy)-N-[1-[5-(4-fluorophenyl)-1,3,4-oxadiazol-2-yl]-2-methylpropan-2-yl]pyridine-2-carboxamide] was 2760 nM; that for `CC(C)(Cc1nc(-c2ccccc2)no1)NC(=O)c1cccc(N2CCCC2=O)n1` [Example 12, N-[2-Methyl-1-(3-phenyl-1,2,4-oxadiazol-5-yl)propan-2-yl]-6-(2-oxopyrrolidin-1-yl)pyridine-2-carboxamide] was 662 nM; that for `CC(C)(Cc1nnc(-c2ccccc2)o1)NC(=O)c1cccc(-c2ccc(Cl)cc2)n1` [Example 2, 6-(4-Chlorophenyl)-N-[2-methyl-1-(5-phenyl-1,3,4-oxadiazol-2-yl)propan-2-yl]pyridine-2-carboxamide] was 165 nM.

For orientation: EC50 means the concentration giving half of the maximal effect.
